Among the test systems are A549 NSCLC; SK-MEL-2 melanoma; RXF 393 renal; M14 melanoma; CAKI-1 renal; HL-60(TB) leukemia; NCI-H226 lung; HCC-2998 colon; SNB-19 CNS.
What all share (test): growth of human tumour cells (NCI), 48 h

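Exposure lasted 48 hours, with cells grown in 96-well plates and compounds tested at five concentrations. GI50 = concentration required for 50% inhibition of growth. TGI marks complete inhibition of growth.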 Bounds are passed on as bounds.

On to `NNC(=S)N/N=C/C(Cl)=C(\Cl)C(=O)O`, for which the TGI in the experiment on A549 NSCLC, in the experiment with SK-MEL-2 melanoma, in the experiment on RXF 393 renal, in the experiment on M14 melanoma, with CAKI-1 renal and in the experiment on HL-60(TB) leukemia was greater than 100 µM each time. The TGI in the experiment with NCI-H226 lung, with HCC-2998 colon and with SNB-19 CNS was greater than 100 µM in each case.
Take `O=[N+]([O-])c1cc(/C=N/NS(=O)(=O)c2ccc(F)cc2)c(O)c([N+](=O)[O-])c1`: the TGI in the experiment with A549 NSCLC was greater than 100 µM; with SK-MEL-2 melanoma, greater than 100 µM; in the experiment on RXF 393 renal, 84.9 µM; in the experiment with M14 melanoma, 52.2 µM; in the experiment on CAKI-1 renal it was greater than 100 µM; with HL-60(TB) leukemia, 67.3 µM. In addition, the TGI in the experiment on HCC-2998 colon and in the experiment on SNB-19 CNS was greater than 100 µM throughout.
`Cc1cc2c(cc1C)[n+]([O-])c(-c1c(Cl)cccc1Cl)c(N)[n+]2[O-]`: the TGI is 98.9 µM in the experiment on A549 NSCLC; greater than 100 µM with SK-MEL-2 melanoma; greater than 100 µM in the experiment with M14 melanoma; 95.1 µM in the experiment on CAKI-1 renal; greater than 100 µM with HL-60(TB) leukemia; 74.4 µM in the experiment on NCI-H226 lung. The TGI in the experiment on HCC-2998 colon and with SNB-19 CNS was greater than 100 µM in each case.
On to `Nn1c(N=Nc2c(O)[nH]c3ccccc23)n[nH]c1=S`, for which the TGI with A549 NSCLC is greater than 100 µM; in the experiment with SK-MEL-2 melanoma it was greater than 100 µM; in the experiment on RXF 393 renal, 95.1 µM; in the experiment on M14 melanoma it was greater than 100 µM; with CAKI-1 renal, greater than 100 µM; in the experiment on HL-60(TB) leukemia, greater than 100 µM. Further, the TGI with NCI-H226 lung, in the experiment with HCC-2998 colon and in the experiment on SNB-19 CNS was greater than 100 µM throughout.
`CCOc1ccc(NC(=O)CCC(=O)NN)cc1`: the TGI with A549 NSCLC, in the experiment with SK-MEL-2 melanoma, in the experiment on RXF 393 renal, with M14 melanoma, with CAKI-1 renal and with HL-60(TB) leukemia was greater than 100 µM each time. Also, the TGI with NCI-H226 lung, with HCC-2998 colon and in the experiment on SNB-19 CNS was greater than 100 µM each time.
Consider `O=C1CCC(=O)C(C(=O)CCC(=O)Nc2cccc(Cl)c2)C1` (configuration not stated), for which the TGI in the experiment with A549 NSCLC, in the experiment with RXF 393 renal, with M14 melanoma, with CAKI-1 renal, in the experiment with HL-60(TB) leukemia and with NCI-H226 lung was greater than 100 µM in each case. Moreover, the TGI in the experiment with HCC-2998 colon and in the experiment on SNB-19 CNS was greater than 100 µM in each case.
`N#C/C(=C\c1ccc(O)cc1O)C(N)=O`: the TGI in the experiment with A549 NSCLC was greater than 100 µM; with SK-MEL-2 melanoma, greater than 100 µM; with RXF 393 renal, 83.5 µM; in the experiment on M14 melanoma, greater than 100 µM; with CAKI-1 renal, greater than 100 µM; in the experiment on HL-60(TB) leukemia, greater than 100 µM. Also, the TGI with NCI-H226 lung, with HCC-2998 colon and in the experiment with SNB-19 CNS was greater than 100 µM in each case.
Consider `COC(=O)/C(=N\O)C(C(=O)C=C(C)C)C(=O)C(=O)Nc1ccccc1C` (configuration not stated), for which the TGI in the experiment on A549 NSCLC, with SK-MEL-2 melanoma, with RXF 393 renal, in the experiment with M14 melanoma, with CAKI-1 renal and in the experiment with HL-60(TB) leukemia was greater than 100 µM in each case. The TGI in the experiment on NCI-H226 lung, in the experiment on HCC-2998 colon and in the experiment on SNB-19 CNS was greater than 100 µM throughout.
For `CC(C)(C)C(=O)[CH-]C(=O)C(F)(F)C(F)(F)C(F)(F)F.CC(C)(C)C(=O)[CH-]C(=O)C(F)(F)C(F)(F)C(F)(F)F.[O-]CC1OC(O)C(O)C(O)C1O.[O-]CC1OC(O)C(O)C(O)C1O.[Ti+4]`, the TGI in the experiment with A549 NSCLC, with SK-MEL-2 melanoma, with RXF 393 renal, with M14 melanoma, in the experiment on CAKI-1 renal and in the experiment with HL-60(TB) leukemia was greater than 100 µM throughout. For the same compound, the TGI with NCI-H226 lung, in the experiment with HCC-2998 colon and in the experiment on SNB-19 CNS was greater than 100 µM in each case. Moreover, the GI50 in the experiment on HCC-2998 colon is greater than 100 µM.
For the compound `CCOC(=O)C1(Cc2ccc3ccccc3c2)CCCCCN1` (configuration not stated), the TGI in the experiment with A549 NSCLC was greater than 100 µM; in the experiment on RXF 393 renal it was 83.2 µM; in the experiment on M14 melanoma it was 48.1 µM; with CAKI-1 renal it was greater than 100 µM; in the experiment on HL-60(TB) leukemia, 52 µM; in the experiment on HCC-2998 colon, 57.3 µM. Also, the TGI with SNB-19 CNS is greater than 100 µM.
Regarding `Cc1nc(N)sc1C(=O)/C=C/c1ccc([N+](=O)[O-])cc1`, the TGI with A549 NSCLC, with SK-MEL-2 melanoma, with RXF 393 renal, in the experiment with CAKI-1 renal, in the experiment on HL-60(TB) leukemia and with HCC-2998 colon was greater than 100 µM each time. In the experiment with SNB-19 CNS, the TGI is greater than 100 µM.
As to `COC(=O)C1=Cc2c(OC)cc(OC)c(OC)c2[C@H](c2cc(OC)c(OC)cc2OC)C1C(=O)OC` (some centres not stated), the TGI in the experiment on A549 NSCLC, with RXF 393 renal, in the experiment with M14 melanoma, in the experiment on CAKI-1 renal, in the experiment with HL-60(TB) leukemia and in the experiment with NCI-H226 lung was greater than 100 µM each time. In addition, the TGI with HCC-2998 colon and in the experiment with SNB-19 CNS was greater than 100 µM in each case.
Consider `C=C1CC(C/C=C(\C)CC2CC(=C)C(=O)O2)OC1=O` (configuration not stated), for which the TGI with A549 NSCLC, in the experiment on SK-MEL-2 melanoma, with RXF 393 renal, in the experiment on M14 melanoma, in the experiment with CAKI-1 renal and in the experiment on HL-60(TB) leukemia was greater than 100 µM each time. In addition, the TGI in the experiment with HCC-2998 colon and in the experiment with SNB-19 CNS was greater than 100 µM throughout.
Regarding `N#CC12Cc3ccc4c(c3-c3cccc(c31)CCN2C(=O)c1ccccc1)OCO4` (configuration not stated), the TGI with A549 NSCLC, with RXF 393 renal, in the experiment on M14 melanoma, with HL-60(TB) leukemia, in the experiment on NCI-H226 lung and with HCC-2998 colon was greater than 100 µM throughout. This compound returned a TGI with SNB-19 CNS greater than 100 µM.
With `CC[O-].CC[O-].O=C([CH-]C(=O)c1ccccc1)c1ccccc1.O=C([CH-]C(=O)c1ccccc1)c1ccccc1.[Ti+4]`, the GI50 was greater than 100 µM in the experiment with A549 NSCLC; greater than 100 µM in the experiment on SK-MEL-2 melanoma; 39.1 µM in the experiment with RXF 393 renal; greater than 100 µM in the experiment on M14 melanoma; greater than 100 µM in the experiment on CAKI-1 renal; 25.3 µM in the experiment on HL-60(TB) leukemia. In addition, the figures for the GI50 with NCI-H226 lung and in the experiment on HCC-2998 colon were 25.2 µM and greater than 100 µM, respectively. Also, the TGI with A549 NSCLC, in the experiment with SK-MEL-2 melanoma, in the experiment on RXF 393 renal, in the experiment with M14 melanoma, with CAKI-1 renal and in the experiment with HL-60(TB) leukemia was greater than 100 µM in each case. The TGI in the experiment with NCI-H226 lung and with HCC-2998 colon was greater than 100 µM throughout.

The values are drawn from PubChem BioAssay (NCI).
